Results on two molecules are retold here after patent publication US7101902B2, “2-guanidinylimidazolidinedione compounds and methods of making and using thereof” (The United States of America as represented by the …, priority 2003, dated 2006).

Structures are written as SMILES. Several values for one entry are separate records, joined by “and”; a condition that tells them apart may be missing. Identical values can stand only once. Entries after “also recorded” stand apart in the source; their conditions may differ.

The nature of series [1]: Solubility and characteristics of the compounds in the dosing vehicle. Format: physicochemical. The conditions noted are these: vehicle DMSO.
The test system of the next series is P. cynomolgi sporozoites. The experiment in a line: Oral causal prophylactic assay in Rhesus monkey (compound 3 IM; 4b and 3c PO). Format: in vivo, Plasmodium cynomolgi. The settings on record: per monkey. The method, then: To test the causal prophylactic intramuscular potency of the purified isomer of compound 3 and oral potency of two carbamate derivatives of 2-guanidinylimidazolidinedione (4b and 3c) the following assay was conducted.
Fourteen rhesus monkeys were issued.
A donor monkey was inoculated intravenously with 1.3 ml, freshly-thawed frozen infected red blood cell (DA310). When the monkey developed gametocytemia, mosquito feedings were conducted on days 15 and 16 after inoculation. The donor monkey was treated with intramuscular chloroquine hydrochloride (CQ) 10 mg/kg, once a day after the second mosquito feeding and continued for 6 days.
On day 0 of the beginning of the assay, each of the 14 monkeys was inoculated intravenously with 1-ml inoculum of suspension containing about 1.0×10^6 P. cynomolgi sporozoites harvested from Anopheles dirus mosquitoes' salivary glands previously fed on the donor monkey.
All monkeys received treatment on days −1, 0 and 1. The control monkeys (Group 1) received HECT orally and the experimental animals received testing compound intramuscularly (Groups 2 and 3) or orally (Groups 4 to 7).

The next series concerns Plasmodium yoelii (17×). The experiment in a line: Sporozoite induced test in mouse (causal prophylactic activity). Format: in vivo. The conditions noted are these: sporozoite challenged CD-1 mice; single dose 4 hours before inoculation; oral administration. How it is done: The causal prophylactic antimalarial activity of the new carbamate derivatives were assessed in a sporozoites challenged mouse model according to the following protocol and the results are shown in Table 4 and Table 5.
Each compound was ground with a mortar and pestle and suspended in 0.5% hydroxyethylcellulose and 0.1% Tween 80 for compounds to be administered PO and those given SC were suspended in peanut oil. Each compound is prepared at 3 different dose levels.
Compounds were administered either PO or SC to mice once 4 hours before inoculation of sporozoites.
Four-week-old male CD-1 mice, purchased from Charles River and weighing about 16 to about 17 grams were placed 5 per cage and allowed to acclimate for 4 days before being treated and then inoculated with sporozoites. They were fed food and water ad-lib and maintained at 76° F. with 12 hour light and 12 hour darkness. The cages and water bottles were changed biweekly. The mice are weighed on Days 0, 3 and 6 then biweekly when blood films were taken.
Plasmodium yoelii (17×) was used to infect mice that will be used to infect the mosquitoes.
Mice were given a single dose of test compound 4 hours before being inoculated intraperitoneally with 2.5×10^5 sporozoites of Plasmodium yoelii on Day 0. Whole body weights were taken on Day 0 and Day 6 then twice a week for 31 days. A blood film was taken on Day 5 and then twice a week for 31 days. Mice loosing greater than about 20% of their body weight were sacrificed. All mice alive on Day 31 with no parasites in a blood film were considered cured. Donor mice used to infect the mosquitoes were infected with 2.5×10^4 parasitized erythrocytes. The mosquitoes were allowed to feed on these malaria-infected mice on Day 4 of their infection when the parasitemia was low.
A compound was considered active against either the sporozoite or the EE stage if no parasites were found in the blood films taken on Day 5 or on subsequent blood films taken weekly for 31 days.
Mice alive on Day 31 with no parasites found in any blood films were considered cured.

A further series deals with P. vivax. The conditions noted are these: cited from earlier work.
The test system of the next series is Plasmodium falciparum. The settings on record: cited from earlier work.

For the molecule `CC(C)N1C(=O)C(=O)N=C1NC(=N)Nc1ccc(Cl)c(Cl)c1` [Compound 3, N-(3,4-dichlorophenyl)-N′-(1-isopropyl-4,5-dioxoimidazolidin-2-ylidene)guanidine], the melting point is 230 °C and 233 °C. Further, in series [1] (dosage 10 mg/kg), the Sediment result is reported as “None”, the Solubility entry is given as “Good” and the Supernatant result is given as “Yellow clear”. Besides, in series [1] (dosage 30 mg/kg), the Sediment result was “None”, the Solubility entry is reported as “Moderate” and the Supernatant result is “Yellow turbid”. Besides, the “Day of Parasitemia” value in the series on P. cynomolgi sporozoites (10 mg/kg IM) stood at 8 days. Moreover, in the series with P. cynomolgi sporozoites (10 mg/kg IM, 10 mg/kg), the Result entry is listed as “not protected; also recorded: No activity”. In the series with P. cynomolgi sporozoites (30 mg/kg IM, 30 mg/kg), the “Day of Parasitemia” value is 15 days and 20 days; the “Result (delay the parasitemia)” value is 7 days and 12 days and did not completely protect the monkeys from malaria. In the series with Plasmodium yoelii (17×), the “Minimum Protective Dose Against P. yoelii” value is listed as >160 mg/kg.

On to `CC(C)NC(=N)NC(=N)Nc1ccc(Cl)c(Cl)c1` [chlorproguanil], for which the “Activity against primary exoerythrocytic forms” value in the series on P. vivax and with Plasmodium falciparum was “highly active” throughout.
